The values below come from a melting point compilation (Tetko et al.; mined from patent text by program, amines drawn as free bases though some values may be those of a salt).

On to `CC1(C)Cc2ccc(C(F)(F)F)c(C#N)c2O1`, for which the melting point is 79 to 83 °C.

With `O=C(CNC(=O)c1ccc(S(=O)(=O)F)cc1)Nc1cccc(-c2cccc3c2/C(=C/c2ccc[nH]2)C(=O)N3)c1`, the melting point is 248 to 250 °C.

As for `Nc1cc(C(=O)NNC(=O)Cc2cccc(O)c2)ccc1O`, the melting point was 264 to 265 °C.

For `CNC(=O)Nc1ccc(O)c(Cl)c1`, the melting point lay within 188 to 189 °C.

Turning to `COc1cc(C(=CC#N)c2ccc(OC)c(OC)c2)ccc1N`, the melting point fell in the range of 104 to 106 °C.

The compound `COc1ccc(Sc2nc(-c3ccc(OC)cc3)cnc2N)cc1` returned a melting point of 149 to 151 °C.

Compound `Cc1c(-c2ccccc2)oc2c(C(O)CCCO)cccc2c1=O` (stereo not drawn) had a melting point of 133 to 134 °C.

Take `COc1c(N2CCCC(NC(C)=O)C2)c(F)cc2c(=O)c(C(=O)O)cn(C3CC3)c12` (stereo not drawn): the melting point was 176 to 177 °C.

On to `CCc1nc(C#N)c(N2CCN(c3ccccc3)CC2)nc1C`, for which the melting point fell in the range of 99 to 101 °C.

As to `O=C(Cc1cc(OC(=O)c2ccccc2)no1)OC(c1ccccc1)c1ccccc1`, the melting point fell in the range of 95 to 96 °C.

Compound `CCCCCCCCCCCCOC(=O)Cc1nc(-c2ccc(Cl)cc2)oc1-c1ccco1` yielded a melting point of 69.5 to 71 °C.

With `COCc1oc(-c2nn(Cc3ccccc3F)c3ccccc23)nc1C`, the melting point was 86 to 88 °C.

`Nc1nc(-n2cc(C(=O)O)c(=O)c3cc(F)c(F)c(Cl)c32)ccc1F` gave a melting point of 232 to 235 °C.

`CN1C(=O)C(c2ccccc2)(C2CCNCC2)N=C1N` (stereo not drawn) displayed a melting point of 269 to 271 °C.

In turn, `CCOC(=O)c1c[nH]c2c(=O)ccc(Cl)cc2c1=O` returned a melting point of 138 to 140 °C.

Regarding `COc1cc(OC2CCN(C(=O)Cc3c[nH]cn3)CC2)ccc1CC(=O)N1CCN(c2ccccc2C)CC1C(N)=O` (stereo not drawn), the melting point lay in the range of 120 to 124 °C.

In turn, `CN1Cc2c(C(N)=O)ncn2-c2cccc(Cl)c2C1=O` had a melting point of more than 250 °C.

On to `CCOC(=O)c1c(C)cc2c(c1C)c(=O)n(-c1ccccc1Cl)c(=O)n2CCCN(C)C`, for which the melting point lay within 155 to 156 °C.

The compound `Cc1ccc(-c2c(C(N)=O)n(C)c(=O)c3ncccc23)cc1` returned a melting point of more than 310 °C.

For the compound `CC(C)(C)c1ccccc1N1CCC(N)=N1`, the melting point worked out at 114 °C.

`CCCc1ccn(-c2ccc(S(C)(=O)=O)cc2)c1-c1ccc(F)cc1` had a melting point of 116 to 117 °C.

Take `CCOCc1nc2c(N)nc3ccc(N4CCOC4=O)cc3c2n1CC(C)(C)O`: the melting point was 207 to 210 °C.

The compound `Cc1ccc(Br)c(S(=O)(=O)C(F)(F)F)c1` returned a melting point of 69 °C.

Compound `COC(=O)C=C(Nc1ccc2[nH]c(=O)oc2c1)C(=O)OC` returned a melting point of 172 °C.

`CNc1nc(-c2ccccc2)c(-c2nc3ccccc3c(=O)n2-c2ccccc2C)s1`: the melting point was 220 to 225 °C.

Compound `O=C(c1ccccc1)N1CCc2[nH]c3c(cnc4cc(Cl)ccc43)c2C1` registered a melting point of 275 °C.

Consider `O=C(CCCC(Cl)c1ccc(Cl)cc1)Nc1ccccc1` (stereo not drawn), for which the melting point lay in the range of 99 to 102 °C.

For the compound `COC(=O)c1ccc(C(=O)N2CCCc3ccccc32)cc1`, the melting point lay in the range of 72 to 74 °C.

Compound `CCCCCCCCOc1ccc(C2CN=C(c3c(F)cccc3Cl)S2)cc1` (stereo not drawn) registered a melting point of 41 to 41.5 °C.

With `C=C(C(=O)c1cc(OC)c(OC)c(-c2cccs2)c1)c1ccc(C(=O)O)cc1`, the melting point lay within 159 to 160 °C.

In turn, `CS(=O)(=O)c1cnc(NC(=O)c2ccccc2O)s1` displayed a melting point of 282 to 283 °C.

Turning to `Clc1nc(-c2cccnc2)[nH]c1Cl`, the melting point was in the range of 237 to 238 °C.

Regarding `Cc1ccccc1-c1cc(C(F)(F)F)n2cnc(C#N)c2n1`, the melting point was 151 °C.

As to `COc1cc(OC)cc(S(=O)(=O)n2c(CCCC(=O)O)cc3nc(Cl)ccc32)c1`, the melting point lay within 136 to 138 °C.

Take `CN(C)S(=O)(=O)c1c(S(N)(=O)=O)ccn1C`: the melting point was 146 to 148 °C.

In the case of `CCCCNC(=O)NCCCn1c(CCOC)nc2c(N)nc3ccccc3c21`, the melting point fell in the range of 159 to 160 °C.

The compound `CCOC(=O)c1cc(=O)cc(-c2ccc(S(C)(=O)=O)cc2)o1` had a melting point of 176 to 179 °C.

On to `CC(C)(C)OC(=O)N1C(=O)C2(COc3cc4c(cc32)OCO4)c2c(Br)cccc21` (stereo not drawn), for which the melting point was 154 to 156 °C.

`O=C(CCCN1CCCCC1)c1ccc2oc3ccc(C(=O)CCCN4CCCCC4)cc3c(=O)c2c1` yielded a melting point of 93 to 95 °C.

As for `CCOC(=O)C(=O)c1ccc(OCC(=O)c2c(C)cc(C)cc2C)cc1`, the melting point lay in the range of 68.5 to 70 °C.

As for `CON=CNC(=O)c1ccc(C2=NOC(c3cc(Cl)cc(Cl)c3)(C(F)(F)F)C2)cc1C` (stereo not drawn), the melting point was 167 to 169 °C.

The compound `CCc1cc(O)n2ccnc2n1` showed a melting point of 93 to 94 °C.

With `Fc1cc(Cl)c2nc(Cl)sc2c1-n1nc2c(c1Cl)CCCC2`, the melting point was 161 to 163 °C.

The compound `CN1CCN(c2ccc(/C=C/C(=O)CC(=O)/C=C/c3ccc4cc[nH]c4c3)cc2)CC1` yielded a melting point of 65 to 77 °C.

As for `N#CCCN(N)c1nc2ccccc2o1`, the melting point was in the range of 169 to 170 °C.

The compound `CC(=O)Nc1cccc(C)n1` gave a melting point of 87 °C.

On to `N#Cc1cccc(S)c1`, for which the melting point was 91 to 95 °C.

For `Cn1cc(C(=O)O)c(=O)c2cc3cc(F)c(N4CCNC(c5cccc(F)c5)C4)cc3nc21` (racemic), the melting point was 254 °C.

The compound `CC(=O)N1CCC(CCC(=O)c2cc3c4c(c2)CCN4C(=O)CC3)CC1` came in with a melting point of 157 to 159 °C.

The compound `CC(C(=O)c1ccc(OC2CCCCO2)cc1)c1ccccc1` (stereo not drawn) had a melting point of 94 to 96 °C.

Consider `Oc1ccccc1C=NC1=NN(c2cnc3ccccc3c2)CC1`, for which the melting point lay in the range of 288 to 289 °C.

`N#CNC(=S)Nc1ccccc1` came in with a melting point of more than 250 °C.

As for `Nc1nc(OC2CCC2)c2ncn(C3CC(F)C(CO)O3)c2n1` (stereo not drawn), the melting point lay within 139 to 140 °C.

The compound `CCCCCCCCCCCCCCCCS(=O)(=O)NCCCCCCCN(C)C` yielded a melting point of 56 to 57.5 °C.

`CC(=O)Nc1ccc(C(C)(C)C(=O)O)cc1` showed a melting point of 170 to 171 °C.

As to `CCOC(=O)C1=C(C)NC(C)=C(C(=O)OCCN2CCN(C(c3ccccc3)c3ccccc3)CC2)C1c1cccc([N+](=O)[O-])c1` (stereo not drawn), the melting point was in the range of 80 to 82 °C.

Consider `O=S(=O)(Nc1ccc2c(OCc3csc(-c4ccc(C(F)(F)F)cn4)n3)cccc2c1)C(F)(F)F`, for which the melting point fell in the range of 197 to 198 °C.

Compound `COc1ccc(Oc2ccccc2Cl)cc1C=O` had a melting point of 65 to 66 °C.

In turn, `Cc1c(C2=CCC(c3ccccc3)(N(C)C)CC2)[nH]c2ccccc12` (stereo not drawn) gave a melting point of 168 to 180 °C.

The compound `N#Cc1ccc(-c2cncc(OC3SCC(O)C(O)C3O)c2)cc1F` (stereo not drawn) had a melting point of 214 °C.

In turn, `CN(C)S(=O)(=O)c1cc2cc(C(=O)O)oc2c(Cl)c1Cl` displayed a melting point of 242 to 245 °C.

Turning to `CC(C)(C=C(Br)Br)C(=O)Nc1ccc(Cl)cc1`, the melting point was found to be 104 °C.

Compound `FC(F)Oc1cc(-n2nc3c(c2Cl)CCCC3)c(Cl)cc1Cl` displayed a melting point of 121 to 123 °C.

On to `Nc1nc(O)c2cc(CCc3ccc(C(=O)N[C@@H](CCC(=O)O)C(=O)O)cc3)cnc2n1`, for which the melting point is more than 200 °C.

As for `CSc1nc(-c2ccccc2)n(-c2ccc(F)cc2)c(=O)c1C#N`, the melting point lay in the range of 204 to 205 °C.

Turning to `Nc1ncnc2c1c(Cl)cn2COCCO`, the melting point is 149 to 150 °C.

Take `C=CC[C@H]1C(=O)N(S(C)(=O)=O)[C@H]2CCN(C(=O)OCc3ccccc3)[C@H]12` (relative stereo): the melting point is 92 to 94 °C.

On to `COc1ccc(C(C#N)N(C)C(=O)C(Cl)Cl)cc1OC` (stereo not drawn), for which the melting point stood at 102 °C.

In turn, `Cc1cc2ccccc2nc1-n1cncn1` yielded a melting point of 80 to 81 °C.

Regarding `O=C(CCc1cccc(Br)c1)c1cnc2sc3c(n12)CCCCC3`, the melting point lay within 77 to 79 °C.

Turning to `CC(C)SC(=O)Cc1cc(Oc2ccc(C(F)(F)F)cc2Cl)ccc1[N+](=O)[O-]`, the melting point lay in the range of 102 to 104 °C.

Take `FC(F)(F)c1ccc(C2=NN(C(=S)Nc3ccc(Cl)cc3)CC2c2ccccc2)cc1` (stereo not drawn): the melting point fell in the range of 208 to 210 °C.

`CC1CCc2ccc(N)c3c(=O)c(C(=O)O)cn1c23` (stereo not drawn): the melting point lay within 247 to 249 °C.

With `COc1ccc2c(c1)C(=O)N(c1ccc3ncccc3c1)C2`, the melting point is 194 to 197 °C.

In turn, `COc1ccc2c(c1)NC(=O)C(N=[N+]=[N-])CC2` (stereo not drawn) showed a melting point of 136 to 138 °C.

For `CCOC(=O)c1ccc(NCCCCCCCc2ccccc2)cc1`, the melting point fell in the range of 65 to 67 °C.

With `Oc1ccccc1CNc1cncc(Br)c1`, the melting point is 184 °C.

The compound `CC(CBr)=C(C(=O)OCc1ccccc1)N1C(=O)C(Br)(Br)C1Br` (stereo not drawn) had a melting point of 84 to 85 °C.

`O=C(Nc1ccc(-c2nnn[nH]2)cc1)C(F)(F)C(F)(F)C(F)(F)F` gave a melting point of 266 to 268 °C.

Compound `ClCc1cn2cc(Br)ccc2n1` gave a melting point of 125 to 126 °C.

Regarding `OCCN1CCN(c2ccccn2)CC1`, the melting point fell in the range of 82.5 to 84 °C.

`NC(=O)c1cc2ccccc2cc1NC(=S)NC(=O)c1ccccc1` came in with a melting point of 220 to 223 °C.

The compound `COc1cccc(COCc2cccc(OC)c2OC)c1OC` showed a melting point of 58 to 60 °C.

The compound `c1ccc2sc(SSN3CCCCCC3)nc2c1` showed a melting point of 65 to 67 °C.

In turn, `CSc1nnc(Cc2cccnc2)c(=O)[nH]1` displayed a melting point of 215 to 216 °C.

`COc1ccc2cc([C@H](C)C(=O)OCC3(CO[N+](=O)[O-])COCOC3)ccc2c1` came in with a melting point of 98 °C.

Turning to `Cc1cc(OCCC[Si](C)(C)C)c(Cl)cc1N(C#N)C=N`, the melting point lay in the range of 143 to 144 °C.

`CCOC(=O)C(=NOC)C(C)=NNC(C)=O`: the melting point was 190 to 192 °C.

As for `Cc1ccc(C(O)=S)cn1`, the melting point was 186 to 188 °C.

Regarding `CC1(C)C=Cc2c(-c3[nH]c4cn[nH]c(=O)c4c3Cl)ccc(OC(F)F)c2O1`, the melting point was 226 to 234 °C.

For `NC(=O)c1ccc(-c2n[nH]c3c2Cc2ccccc2-3)cc1`, the melting point is 290 to 293 °C.

`COc1ccc(S(=O)(=O)NC(C)c2ccccc2-c2ccc(F)cc2F)cc1` (stereo not drawn) came in with a melting point of 154 to 155 °C.

`Cc1ccc2c(n1)C(=O)C(N)=C(Cl)C2=O` had a melting point of 270 °C.

The melting point is the temperature of the solid-liquid transition.
